Test results published in patent publication US10160747B2, “Compounds and methods for kinase modulation, and indications therefor” (Plexxikon Inc., priority 2016, dated 2018).

Columns and labels:
c-KIT = target: T1, c-KIT (Homo sapiens, UniProt P10721); experiment: c-KIT recombinant enzyme kinase assay (AlphaScreen); format: biochemical; settings: 100 ATP, 8 pt
T1 construct: purchased Millipore 14-559K
Procedure, shortened: (§1)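 Kinase activity of recombinant FLT3-ITD, FLT3-D835Y and c-KIT was followed via phosphotyrosine formation on a 30 nM biotin-peptide substrate, captured on streptavidin donor and anti-phosphotyrosine acceptor AlphaScreen beads. ATP was set at 10 μM for FLT3 and 100 μM for c-KIT.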

FLT3-D835Y = target: T2, FLT3-D835Y (Homo sapiens, UniProt P36888, D835Y); experiment: FLT3-D835Y recombinant enzyme kinase assay (AlphaScreen); format: biochemical; settings: 8 pt, GMean
T2 construct: purchased Invitrogen PV3967
T2 sequence (P36888 27-993 D835Y): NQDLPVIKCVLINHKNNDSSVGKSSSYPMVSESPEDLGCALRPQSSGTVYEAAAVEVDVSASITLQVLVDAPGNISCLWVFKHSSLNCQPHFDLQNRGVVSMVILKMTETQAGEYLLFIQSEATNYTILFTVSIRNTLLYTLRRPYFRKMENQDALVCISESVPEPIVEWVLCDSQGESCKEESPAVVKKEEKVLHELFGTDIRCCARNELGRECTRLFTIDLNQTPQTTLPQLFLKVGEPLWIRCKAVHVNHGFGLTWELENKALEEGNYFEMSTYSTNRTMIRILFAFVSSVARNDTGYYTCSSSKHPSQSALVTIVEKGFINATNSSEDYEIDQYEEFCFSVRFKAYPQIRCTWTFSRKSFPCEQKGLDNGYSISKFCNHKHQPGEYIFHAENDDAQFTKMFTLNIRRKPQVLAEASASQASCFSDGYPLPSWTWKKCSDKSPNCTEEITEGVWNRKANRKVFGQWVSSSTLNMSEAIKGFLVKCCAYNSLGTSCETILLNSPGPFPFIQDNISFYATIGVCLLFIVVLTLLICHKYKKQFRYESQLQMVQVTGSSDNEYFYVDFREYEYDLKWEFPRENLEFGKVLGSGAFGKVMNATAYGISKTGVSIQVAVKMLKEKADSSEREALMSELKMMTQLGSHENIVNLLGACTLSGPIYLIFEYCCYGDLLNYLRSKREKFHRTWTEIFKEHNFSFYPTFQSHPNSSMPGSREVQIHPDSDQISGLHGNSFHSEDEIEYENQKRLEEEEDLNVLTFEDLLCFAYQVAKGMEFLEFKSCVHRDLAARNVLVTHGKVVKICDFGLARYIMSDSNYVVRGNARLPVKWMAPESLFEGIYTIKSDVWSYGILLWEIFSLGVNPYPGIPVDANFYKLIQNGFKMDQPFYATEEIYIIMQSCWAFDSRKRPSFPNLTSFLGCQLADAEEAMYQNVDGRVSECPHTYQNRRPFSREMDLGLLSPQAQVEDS
Procedure, shortened: as §1

T1 sequence (P10721 26-976): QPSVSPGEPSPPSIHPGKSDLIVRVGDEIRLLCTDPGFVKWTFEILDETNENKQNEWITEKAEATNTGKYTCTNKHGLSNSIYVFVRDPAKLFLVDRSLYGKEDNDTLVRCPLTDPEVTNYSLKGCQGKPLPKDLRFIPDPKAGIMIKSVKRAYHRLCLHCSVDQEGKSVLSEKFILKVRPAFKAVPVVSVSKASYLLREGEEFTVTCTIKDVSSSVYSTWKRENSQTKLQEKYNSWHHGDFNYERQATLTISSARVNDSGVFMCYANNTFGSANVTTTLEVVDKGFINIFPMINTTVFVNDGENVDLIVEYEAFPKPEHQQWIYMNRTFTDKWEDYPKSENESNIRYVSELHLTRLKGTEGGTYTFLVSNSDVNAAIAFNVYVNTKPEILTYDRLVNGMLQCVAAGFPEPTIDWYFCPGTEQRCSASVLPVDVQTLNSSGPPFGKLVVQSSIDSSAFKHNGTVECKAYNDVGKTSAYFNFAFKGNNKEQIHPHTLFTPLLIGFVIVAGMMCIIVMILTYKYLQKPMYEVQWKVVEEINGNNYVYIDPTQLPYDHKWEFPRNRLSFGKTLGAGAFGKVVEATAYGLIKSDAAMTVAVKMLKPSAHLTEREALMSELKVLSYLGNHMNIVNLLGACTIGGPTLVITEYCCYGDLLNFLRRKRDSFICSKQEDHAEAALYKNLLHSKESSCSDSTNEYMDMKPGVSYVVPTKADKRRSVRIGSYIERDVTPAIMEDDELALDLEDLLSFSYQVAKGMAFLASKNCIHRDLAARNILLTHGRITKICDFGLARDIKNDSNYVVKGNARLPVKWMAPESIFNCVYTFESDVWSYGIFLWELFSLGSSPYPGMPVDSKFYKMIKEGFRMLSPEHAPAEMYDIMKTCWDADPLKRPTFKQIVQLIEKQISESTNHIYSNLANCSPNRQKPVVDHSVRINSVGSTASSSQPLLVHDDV

SMILES	IC50 (c-KIT) [µM]	IC50 (FLT3-D835Y) [µM]
Cn1cc(Nc2ncc(-c3ccc(CC(=O)Nc4cc(C(F)(F)F)ccn4)c(F)c3)cn2)cn1 [Compound P-0082, 2-[2-fluoro-4-[2-[(1-methylpyrazol-4-yl)amino]pyrimidin-5-yl]phenyl]-N-[4-(trifluoromethyl)-2-pyridyl]acetamide]	0.0001 to 10	0.0001 to 10
Cn1cc(Nc2ncc(-c3ccc(CC(=O)Nc4ccnc(C(F)(F)F)c4)c(F)c3)cn2)cn1 [Compound P-0083, 2-[2-fluoro-4-[2-[(1-methylpyrazol-4-yl)amino]pyrimidin-5-yl]phenyl]-N-[2-(trifluoromethyl)-4-pyridyl]acetamide]	0.0001 to 10	0.0001 to 10
Cn1cc(Nc2ncc(-c3ccc(CC(=O)Nc4cncc(C(F)(F)F)c4)c(F)c3)cn2)cn1 [Compound P-0084, 2-[2-fluoro-4-[2-[(1-methylpyrazol-4-yl)amino]pyrimidin-5-yl]phenyl]-N-[5-(trifluoromethyl)-3-pyridyl]acetamide]	0.0001 to 10	0.0001 to 10
COc1cncc(NC(=O)Cc2ccc(-c3cnc(Nc4cnn(C)c4)nc3)cc2F)c1 [Compound P-0086, 2-[2-fluoro-4-[2-[(1-methylpyrazol-4-yl)amino]pyrimidin-5-yl]phenyl]-N-(5-methoxy-3-pyridyl)acetamide]	0.0001 to 10	0.0001 to 10
Cn1cc(Nc2ncc(-c3ccc(CC(=O)NCc4ccc(C(F)(F)F)nc4)c(F)c3)cn2)cn1 [Compound P-0087, 2-[2-fluoro-4-[2-[(1-methylpyrazol-4-yl)amino]pyrimidin-5-yl]phenyl]-N-[[6-(trifluoromethyl)-3-pyridyl]methyl]acetamide]	0.0001 to 10	0.0001 to 10
COc1ncc(NC(=O)Cc2ccc(-c3cnc(Nc4cnn(C)c4)nc3)cc2F)cc1C(F)(F)F [Compound P-0089, 2-[2-fluoro-4-[2-[(1-methylpyrazol-4-yl)amino]pyrimidin-5-yl]phenyl]-N-[6-methoxy-5-(trifluoromethyl)-3-pyridyl]acetamide]	0.0001 to 10	0.0001 to 10
Cn1cc(Nc2ncc(-c3ccc(CC(=O)Nc4cncc(C(C)(F)F)c4)c(F)c3)cn2)cn1 [Compound P-0090, N-[5-(1,1-difluoroethyl)-3-pyridyl]-2-[2-fluoro-4-[2-[(1-methylpyrazol-4-yl)amino]pyrimidin-5-yl]phenyl]acetamide]	0.0001 to 10	0.0001 to 10
